Results from patent publication US9216991B2 (Ares Trading S.A., priority 2012, dated 2015).
Structures can show the parent of a compound that is named as a salt.

What was measured:
[1] = target: T1, IRAK4 (Homo sapiens, UniProt Q9NWZ3); test: IRAK4 Enzymatic Assay; assay type: biochemical; conditions: His-TEV-IRAK4 20 ng/well, ATP 2 μM, STK1-biotin peptide 300 nM, 3 hours at 30° C., FlashPlate radioactivity
T1 construct: His (N); TEV cleavage site (N)
T1 sequence (Q9NWZ3 1-460): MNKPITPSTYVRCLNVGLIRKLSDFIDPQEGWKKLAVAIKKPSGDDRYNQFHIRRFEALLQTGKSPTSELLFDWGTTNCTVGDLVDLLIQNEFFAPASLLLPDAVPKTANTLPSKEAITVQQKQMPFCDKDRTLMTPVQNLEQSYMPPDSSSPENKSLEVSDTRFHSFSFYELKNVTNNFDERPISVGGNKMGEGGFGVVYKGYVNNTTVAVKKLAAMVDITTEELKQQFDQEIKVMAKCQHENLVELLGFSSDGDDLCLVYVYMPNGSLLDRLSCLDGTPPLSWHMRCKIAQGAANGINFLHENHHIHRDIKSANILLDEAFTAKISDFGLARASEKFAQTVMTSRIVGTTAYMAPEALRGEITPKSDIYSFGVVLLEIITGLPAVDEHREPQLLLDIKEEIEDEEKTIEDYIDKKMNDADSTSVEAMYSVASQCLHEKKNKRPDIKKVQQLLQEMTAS
Method in brief: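 Recombinant His-TEV-tagged IRAK4 (20 ng/well) phosphorylates biotinylated STK1 peptide (300 nM) with 2 μM ATP plus [^33P]ATP, 3 h at 30 °C in pH 7.0 HEPES buffer with MgCl2 and MnCl2; compounds tested 20 μM to 1 nM. Reaction stopped with EDTA; incorporated radioactivity counted on streptavidin FlashPlates.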

CN1CC2CC1CN2C(=O)[C@H]1CC[C@H](n2cc(-c3cnc(-c4cccc(-c5cnn(C)c5)c4)nc3)cn2)CC1 (stereo partly drawn) (as salt: hydrobromid) [Example 278, (5-Methyl-2,5-diaza-bicyclo[2.2.1]hept-2-yl)-trans-[4-(-4-{2-[3-(1-methyl-1H-pyrazol-4-yl)-phenyl]-pyrimidin-5-yl}-pyrazol-1-yl)-cyclohexyl]-methanone hydrobromide]
melting point: 50.3 to 55 °C

Cn1cc(-c2cccc(-c3ncc(-c4cnn([C@@H]5CCC[C@@H](O)C5)c4)cn3)c2)cn1 (relative stereo) [Example 290, Trans-3-(4-{2-[3-(1-Methyl-1H-pyrazol-4-yl)-phenyl]-pyrimidin-5-yl}-pyrazol-1-yl)-cyclohexanol]
IC50 [1]: 100 to 1000 nM
melting point: 207.5 to 212 °C

Cn1cc(-c2cccc(-c3ncc(-c4cnn([C@H]5CC[C@]6(CO)COC[C@]6(O)C5)c4)cn3)c2)cn1 (single isomer, unassigned) [Example 280]
IC50 [1]: < 100 nM
melting point: 190.1 to 201.7 °C

Cn1cc(-c2cccc(-c3ncc(-c4cnn([C@@H]5CC[C@@]6(CO)COC[C@@]6(O)C5)c4)cn3)c2)cn1 (single isomer, unassigned) [Example 281]
IC50 [1]: 100 to 1000 nM
melting point: 191.4 to 199.7 °C

Cn1cc(-c2cccc(-c3ncc(-c4cnn(CCO)c4)cn3)c2)cn1 [Example 23, 2-(4-{2-[3-(1-Methyl-1H-pyrazol-4-yl)-phenyl]-pyrimidin-5-yl}-pyrazol-1-yl)-ethanol]
IC50 [1]: 100 to 1000 nM
melting point: 234 to 236 °C

Cn1cc(-c2cnc(-c3cccc(-c4cnn(C)c4)c3)nc2)cn1 [Example 32, 5-(1-Methyl-1H-pyrazol-4-yl)-2-[3-(1-methyl-1H-pyrazol-4-yl)-phenyl]-pyrimidine]
IC50 [1]: 100 to 1000 nM
melting point: 199 to 200 °C

Cn1cc(-c2cccc(-c3ncc(-c4cnn(CC(=O)N5CCCC(O)C5)c4)cn3)c2)cn1 (centres unmarked) [Example 52, 1-(3-Hydroxy-piperidin-1-I)-2-(4-{2-[3-(1-methyl-1H-pyrazol-4-yl)-phenyl]-pyrimidin-5-yl}-pyrazol-1-yl)-ethanone]
IC50 [1]: 100 to 1000 nM
melting point: 198 to 200 °C

Cn1cc(-c2cccc(-c3ncc(-c4cnn(CC(=O)N5CC(O)C5)c4)cn3)c2)cn1 [Example 73, 1-(3-Hydroxy-azetidin-1-yl)-2-(4-{2-[3-(1-methyl-1H-pyrazol-4-yl)-phenyl]-pyrimidin-5-yl}-pyrazol-1-yl)-ethanone]
IC50 [1]: 100 to 1000 nM
melting point: 177 to 181 °C

Cn1cc(-c2cccc(-c3ncc(-c4cnn(CC(=O)N5CCC(O)C5)c4)cn3)c2)cn1 (centres unmarked) [Example 74, 1-(3-Hydroxy-pyrrolidin-1-yl)-2-(4-{2-[3-(1-methyl-1H-pyrazol-4-yl)-phenyl]-pyrimidin-5-yl}-pyrazol-1-yl)-ethanone]
IC50 [1]: 100 to 1000 nM
melting point: 237 to 238 °C

Cn1cc(-c2cccc(-c3ncc(-c4cnn(C5CCS(=O)(=O)C5)c4)cn3)c2)cn1 (centres unmarked) [Example 219, 5-[1-(1,1-Dioxo-tetrahydro-1lambda6-thiophen-3-yl)-1H-pyrazol-4-yl]-2-[3-(1-methyl-1H-pyrazol-4-yl)-phenyl]-pyrimidine]
IC50 [1]: 100 to 1000 nM
melting point: 247 to 250 °C

Cn1cc(-c2cccc(-c3ncc(-c4cnn(C5CCOCC5CN5CCOCC5)c4)cn3)c2)cn1 (centres unmarked) [Example 271, 4-[4-(4-{2-[3-(1-Methyl-1H-pyrazol-4-yl)-phenyl]-pyrimidin-5-yl}-pyrazol-1-yl)-tetrahydro-pyran-3-ylmethyl]-morpholine]
IC50 [1]: 1000 to 5000 nM

CC1COCCC1N1CCC(n2cc(-c3cnc(-c4cccc(-c5cnn(C)c5)c4)nc3)cn2)CC1 (centres unmarked) [Example 275, 2-[3-(1-Methyl-1H-pyrazol-4-yl)-phenyl]-5-{1-[1-(3-methyl-tetrahydro-pyran-4-yl)-piperidin-4-yl]-1H-pyrazol-4-yl}-pyrimidine]
IC50 [1]: < 100 nM

Cn1cc(-c2cccc(-c3ncc(-c4cnn(C5C6COCC5CC(CO)C6)c4)cn3)c2)cn1 (centres unmarked) [Example 276, [9-(4-{2-[3-(1-Methyl-1H-pyrazol-4-yl)-phenyl]-pyrimidin-5-yl}-pyrazol-1-yl)-3-oxa-bicyclo[3.3.1]non-7-yl]-methanol]
IC50 [1]: 100 to 1000 nM

Cn1cc(-c2cccc(-c3ncc(-c4cnn([C@H]5CC[C@H](OCCO)CC5)c4)cn3)c2)cn1 [Example 277, Trans-2-[4-(-4-{2-[3-(1-Methyl-1H-pyrazol-4-yl)-phenyl]-pyrimidin-5-yl}-pyrazol-1-yl)-cyclohexyloxy]-ethanol]
IC50 [1]: < 100 nM
melting point: 218.7 to 223.3 °C

CN1CC2CC1CN2C(=O)[C@H]1CC[C@H](n2cc(-c3cnc(-c4cccc(-c5cnn(C)c5)c4)nc3)cn2)CC1 (stereo partly drawn) [Example 278, (5-Methyl-2,5-diaza-bicyclo[2.2.1]hept-2-yl)-trans-[4-(-4-{2-[3-(1-methyl-1H-pyrazol-4-yl)-phenyl]-pyrimidin-5-yl}-pyrazol-1-yl)-cyclohexyl]-methanone hydrobromide]
IC50 [1]: < 100 nM

Cn1cc(-c2cccc(-c3ncc(-c4cnn([C@H]5CCCNC5)c4)cn3)c2)cn1 [Example 283, 2-[3-(1-Methyl-1H-pyrazol-4-yl)-phenyl]-5-((S)-1-piperidin-3-yl-1H-pyrazol-4-yl)-pyrimidine]
IC50 [1]: < 100 nM
melting point: 175.8 to 180.6 °C

CC(=O)N1CCC(n2cc(-c3cnc(-c4cccc(-c5cnn(C)c5)c4)nc3)cn2)C(F)(F)C1 (centres unmarked) [Example 284, 1-[3,3-Difluoro-4-(4-{2-[3-(1-methyl-1H-pyrazol-4-yl)-phenyl]-pyrimidin-5-yl}-pyrazol-1-yl)-piperidin-1-yl]-ethanone]
IC50 [1]: < 100 nM

Cn1cc(-c2cccc(-c3ncc(-c4cnn([C@H]5CC[C@]6(CCC(=O)N6C)CC5)c4)cn3)c2)cn1 [Example 285, Cis-1-Methyl-8-(4-{2-[3-(1-methyl-1H-pyrazol-4-yl)-phenyl]-pyrimidin-5-yl}-pyrazol-1-yl)-1-aza-spiro[4.5]decan-2-one]
IC50 [1]: < 100 nM

Cn1cc(-c2cccc(-c3ncc(-c4cnn([C@H]5CC[C@@]6(CC5)CNC(=O)C6)c4)cn3)c2)cn1 [Example 286, trans-8-(4-{2-[3-(1-Methyl-1H-pyrazol-4-yl)-phenyl]-pyrimidin-5-yl}-pyrazol-1-yl)-2-aza-spiro[4.5]decan-3-one]
IC50 [1]: < 100 nM
melting point: 255 to 258.7 °C

Cn1cc(-c2cccc(-c3ncc(-c4cnn([C@H]5CC[C@]6(CC5)CNC(=O)C6)c4)cn3)c2)cn1 [Example 287, cis-8-(4-(2-(3-(1-methyl-1H-pyrazol-4-yl)phenyl)pyrimidin-5-yl)-1H-pyrazol-1-yl)-2-azaspiro[4.5]decan-3-one]
IC50 [1]: < 100 nM
melting point: 262 to 265.8 °C

Cn1cc(-c2cccc(-c3ncc(-c4cnn(C5CCCC(S(C)(=N)=O)C5)c4)cn3)c2)cn1 (centres unmarked) [Example 288, imino(methyl)(3-(4-(2-(3-(1-methyl-1H-pyrazol-4-yl)phenyl)pyrimidin-5-yl)-1H-pyrazol-1-yl)cyclohexyl)-λ6-sulfanone]
IC50 [1]: < 100 nM
melting point: 172 to 179.2 °C

Cn1cc(-c2cccc(-c3ncc(-c4cnn([C@H]5CC[C@H](NCCO)CC5)c4)cn3)c2)cn1 [Example 289, 2-trans-[4-(4-{2-[3-(1-Methyl-1H-pyrazol-4-yl)-phenyl]-pyrimidin-5-yl}-pyrazol-1-yl)-cyclohexylamino]-ethano]
IC50 [1]: < 100 nM

Cc1nn(C2CCC(O)CC2)cc1-c1cnc(-c2cccc(-c3cnn(C)c3)c2)nc1 (centres unmarked) [Example 291, 4-(3-Methyl-4-{2-[3-(1-methyl-1H-pyrazol-4-yl)-phenyl]-pyrimidin-5-yl}-pyrazol-1-yl)-cyclohexanol]
IC50 [1]: 100 to 1000 nM

Cn1cc(-c2ccc(F)c(-c3ncc(-c4cnn([C@H]5CC[C@H](O)CC5)c4)cn3)c2)cn1 [Example 292, 4-(4-{2-[2-Fluoro-5-(1-methyl-1H-pyrazol-4-yl)-phenyl]-pyrimidin-5-yl}-pyrazol-1-yl)-cyclohexanol]
IC50 [1]: 100 to 1000 nM
